# In patent US12415786B2, “Substituted 2-heteroarylaminobenzenes and the salts thereof and their use as herbicidal agents” (Bayer Aktiengesellschaft, priority 2019, dated 2025):
# Legend:
# Type in all cases: in vivo
# Amaranthus retroflexus [1] = test: Herbicidal post-emergence action (greenhouse pots), AMARE; conditions: 1280 g/ha, visual rating about 3 weeks after treatment vs untreated controls
# Source text: (§1) In the examples and tables below, the following abbreviations are used: • Undesired Plants/Weeds: • ABUTH: Abutilon theophrasti • AGSTE: Agrostis tenuis • AMARE Amaranthus retroflexus • ECHCG: Echinochloa crus-galli • LOLRI: Lolium rigidum • MATIN: Matricaria inodora • POAAN: Poa annua • SETVI: Setaria viridis • STEME: Stellaria media A. Herbicidal Early Post-Emergence Action Seeds of mono- and dicotyledonous weed plants were placed in plastic pots in sandy loam soil (doubly sown with in each case one species of mono- or dicotyledonous weed plants per pot), covered with soil and cultivated in a greenhouse under controlled growth conditions. 2 to 3 weeks after sowing, the test plants were treated at the one-leaf stage. The compounds of the invention, formulated in the form of wettable powders (WP) or as emulsion concentrates (EC), were applied onto the green parts of the plants as aqueous suspension or emulsion with addition of 0.5% additive at a water application rate of 600 liters per hectare (converted). After the test plants had been kept in the greenhouse under optimum growth conditions for about 3 weeks, the activity of the preparations was rated visually in comparison to untreated controls. For example, 100% activity=the plants have died, 0% activity=like untreated control plants. Tables B1-B8 below show the effects of selected compounds of the general formula (I) according to Table 1 above on various harmful plants and an application rate corresponding to 1280 g/ha, which were obtained by the experimental procedure mentioned above.
# Poa annua [2] = test: Herbicidal early post-emergence action (96-well microtiter plates), POAAN; conditions: 1900 g/ha, scored 9 to 12 days after treatment, 100% = plants have died, 0% = like untreated control plants
# Source text: (§2) In the examples and tables below, the following abbreviations are used: • Undesired Plants/Weeds: • ABUTH: Abutilon theophrasti • AGSTE: Agrostis tenuis • AMARE Amaranthus retroflexus • ECHCG: Echinochloa crus-galli • LOLRI: Lolium rigidum • MATIN: Matricaria inodora • POAAN: Poa annua • SETVI: Setaria viridis • STEME: Stellaria media A. Herbicidal Early Post-Emergence Action Seeds of monocotyledonous and dicotyledonous weed plants were placed in 96-well microtiter plates in quartz sand and grown in a climatized chamber under controlled growth conditions. 5 to 7 days after sowing, the test plants were treated at the cotyledon stage. The compounds according to the invention, formulated in the form of emulsion concentrates (EC), were applied with a water application rate of the equivalent of 2200 liters per hectare. After the test plants had been left to stand in the climatized chamber for 9 to 12 days under optimum growth conditions, the effect of the preparations was scored visually in comparison to untreated controls. Here, for example, 100% activity=the plants have died, 0% activity=like untreated control plants. Tables A1 to A2 below show the effects of selected compounds of the general formula (I) according to Table 1 above on various harmful plants and an application rate corresponding to 1900 g/ha, which were obtained by the experimental procedure mentioned above.
# Setaria viridis [3] = test: Herbicidal pre-emergence action (greenhouse pots), SETVI; conditions: 1280 g/ha, visual scoring after about 3 weeks vs untreated controls
# Source text: (§3) In the examples and tables below, the following abbreviations are used: • Undesired Plants/Weeds: • ABUTH: Abutilon theophrasti • AGSTE: Agrostis tenuis • AMARE Amaranthus retroflexus • ECHCG: Echinochloa crus-galli • LOLRI: Lolium rigidum • MATIN: Matricaria inodora • POAAN: Poa annua • SETVI: Setaria viridis • STEME: Stellaria media A. Herbicidal Early Post-Emergence Action Seeds of mono- and dicotyledonous weed plants were placed in plastic pots in sandy loam soil (doubly sown with one species each of mono- or dicotyledonous weed plants per pot) and covered with soil. The compounds of the invention, formulated in the form of wettable powders (WP) or as emulsion concentrates (EC), were then applied onto the surface of the covering soil as aqueous suspension or emulsion with addition of 0.5% additive at a water application rate of 600 liters per hectare (converted). After the treatment, the pots were placed in a greenhouse and kept under good growth conditions for the test plants. After about 3 weeks, the effect of the preparations was scored visually in comparison with untreated controls as percentages. For example, 100% activity=the plants have died, 0% activity=like untreated control plants. Tables C1-C8 below show the effects of selected compounds of the general formula (I) according to Table 1 above on various harmful plants and an application rate corresponding to 1280 g/ha, which were obtained by the experimental procedure mentioned above.
# Abutilon theophrasti = test: Herbicidal post-emergence action (greenhouse pots), ABUTH; conditions: 1280 g/ha, visual rating about 3 weeks after treatment vs untreated controls
# Source text: as §1
# Stellaria media [4] = test: Herbicidal pre-emergence action (greenhouse pots), STEME; conditions: 1280 g/ha, visual scoring after about 3 weeks vs untreated controls
# Source text: as §3
# Stellaria media [5] = test: Herbicidal post-emergence action (greenhouse pots), STEME; conditions: 1280 g/ha, visual rating about 3 weeks after treatment vs untreated controls
# Source text: as §1
# Amaranthus retroflexus [6] = test: Herbicidal pre-emergence action (greenhouse pots), AMARE; conditions: 1280 g/ha, visual scoring after about 3 weeks vs untreated controls
# Source text: as §3
# Agrostis tenuis = test: Herbicidal early post-emergence action (96-well microtiter plates), AGSTE; conditions: 1900 g/ha, scored 9 to 12 days after treatment, 100% = plants have died, 0% = like untreated control plants
# Source text: as §2
# Matricaria inodora = test: Herbicidal pre-emergence action (greenhouse pots), MATIN; conditions: 1280 g/ha, visual scoring after about 3 weeks vs untreated controls
# Source text: as §3
# Poa annua [7] = test: Herbicidal post-emergence action (greenhouse pots), POAAN; conditions: 1280 g/ha, visual rating about 3 weeks after treatment vs untreated controls
# Source text: as §1
# Poa annua [8] = test: Herbicidal pre-emergence action (greenhouse pots), POAAN; conditions: 1280 g/ha, visual scoring after about 3 weeks vs untreated controls
# Source text: as §3
# Echinochloa crus-galli [9] = test: Herbicidal pre-emergence action (greenhouse pots), ECHCG; conditions: 1280 g/ha, visual scoring after about 3 weeks vs untreated controls
# Source text: as §3
# Echinochloa crus-galli [10] = test: Herbicidal post-emergence action (greenhouse pots), ECHCG; conditions: 1280 g/ha, rated after about 3 weeks, 100% = plants have died, 0% = like untreated control plants
# Source text: as §1
# Setaria viridis [11] = test: Herbicidal post-emergence action (greenhouse pots), SETVI; conditions: 1280 g/ha, rated after about 3 weeks, 100% = plants have died, 0% = like untreated control plants
# Source text: as §1
Compound,herbicidal activity AMARE (Amaranthus retroflexus [1]),"POAAN (herbicidal activity, scored visually in comparison to untreated controls) (Poa annua [2])",herbicidal activity SETVI (Setaria viridis [3]),herbicidal activity ABUTH (Abutilon theophrasti),herbicidal activity STEME (Stellaria media [4]),herbicidal activity STEME (Stellaria media [5]),herbicidal activity AMARE (Amaranthus retroflexus [6]),"AGSTE (herbicidal activity, scored visually in comparison to untreated controls) (Agrostis tenuis)",herbicidal activity MATIN (Matricaria inodora),herbicidal activity POAAN (Poa annua [7]),herbicidal activity POAAN (Poa annua [8]),herbicidal activity ECHCG (Echinochloa crus-galli [9]),"ECHCG (herbicidal activity, rated visually in comparison to untreated controls) (Echinochloa crus-galli [10])","SETVI (herbicidal activity, rated visually in comparison to untreated controls) (Setaria viridis [11])"
N#Cc1cccc(Nc2ccc(F)cn2)c1Oc1ccc(F)c(F)c1 [Example 1-111],100%,100%,90%,90%,100%,90%,100%,100%,90%,,,,,
Cc1cccc(Nc2ncc(Cl)cn2)c1Oc1ccc(F)cc1 [Example 1-239],100%,100%,,,,100%,,80%,100%,100%,100%,,,
N#Cc1cccc(Nc2ncccn2)c1Oc1cccc(F)c1 [Example 1-247],100%,,100%,,100%,,100%,80%,,,100%,90%,,
N#Cc1cccc(Nc2ncccn2)c1Oc1ccc(C(F)(F)F)cc1 [Example 1-260],100%,100%,100%,,100%,90%,100%,100%,90%,,90%,90%,,
N#Cc1cccc(Nc2ncc(F)cn2)c1Oc1cccc(F)c1 [Example 1-266],100%,100%,100%,100%,100%,100%,100%,80%,100%,,100%,90%,100%,
N#Cc1cccc(Nc2ncc(Cl)cn2)c1Oc1cccc(F)c1 [Example 1-285],100%,,100%,,100%,,100%,,,,100%,90%,,
N#Cc1cccc(Nc2ncc(Cl)cn2)c1Oc1ccc(F)cc1Cl [Example 1-293],100%,80%,100%,90%,90%,,100%,80%,,,,,,
N#Cc1cccc(Nc2ncc(Cl)cn2)c1Oc1ccc(C(F)(F)F)cc1 [Example 1-298],100%,80%,100%,90%,100%,100%,100%,80%,90%,90%,100%,,,90%
